Laboratory results taken from patent publication US10815241B2, “Optically active azabicyclo ring derivative” (priority 2018, dated 2020).
“Also recorded” adds a separate entry of the source.

Tests used:
[1] = biological target: Menin-MLL binding (His-Menin1-615 / MLL1-172-FLAG) (Homo sapiens (Human), UniProt O00255); assay: Test 1: inhibition of the Menin-MLL binding (HTRF); settings: for IC50: Menin-MLL binding inhibition; for Menin-MLL binding inhibition activity: statement in words on the table of Test 1
Sequence of Menin-MLL binding (His-Menin1-615 / MLL1-172-FLAG) (O00255 other isoform, or with tags, fused parts or gaps): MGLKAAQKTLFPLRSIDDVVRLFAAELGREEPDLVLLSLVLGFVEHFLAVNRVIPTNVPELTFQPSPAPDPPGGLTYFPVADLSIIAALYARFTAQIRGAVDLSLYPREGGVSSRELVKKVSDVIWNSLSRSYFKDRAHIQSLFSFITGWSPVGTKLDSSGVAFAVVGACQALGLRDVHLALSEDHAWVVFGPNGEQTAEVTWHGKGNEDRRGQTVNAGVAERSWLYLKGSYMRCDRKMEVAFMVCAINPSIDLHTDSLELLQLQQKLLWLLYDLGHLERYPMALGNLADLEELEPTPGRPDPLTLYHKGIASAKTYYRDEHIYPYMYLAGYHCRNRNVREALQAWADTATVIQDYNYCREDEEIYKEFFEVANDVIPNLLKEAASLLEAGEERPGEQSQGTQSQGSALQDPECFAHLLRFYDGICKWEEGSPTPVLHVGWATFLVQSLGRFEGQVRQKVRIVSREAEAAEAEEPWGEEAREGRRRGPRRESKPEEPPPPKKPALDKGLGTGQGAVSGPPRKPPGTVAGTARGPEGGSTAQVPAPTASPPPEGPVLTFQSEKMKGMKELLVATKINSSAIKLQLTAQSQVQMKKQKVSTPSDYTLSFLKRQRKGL
Protocol: After the incubation, the signal was detected with RUBYstar (BMG LABTECH).

RS4; 11 cells = assay: Test 2: inhibition of cell proliferation, RS4;11; type: cell-based; settings: for IC50: Homo sapiens, RS4;11 cells, 7 days, PrestoBlue cell viability; for cell proliferation inhibition activity: statement in words, RS4;11 and MOLM-13 cells
Protocol: (§1) RS4; 11 cells were obtained from American Type Culture Collection (ATCC). […] MOLM-13 cells were separately obtained from DSMZ (Deutsche Sammlung von Mikroorganismen und Zellkulturen GmbH).
(§2) The cells were plated to a 96-well plate in 2000 cells/well, each test compound was added thereto to adjust the final concentration of DMSO to 0.1% of DMSO, and the cells were cultured for 7 days. After the cultivation, the cell viability was calculated with PrestoBlue™ Cell Viability Reagent (Invitrogen, A13261).

MOLM-13 cells = assay: Test 2: inhibition of cell proliferation, MOLM-13; type: cell-based; settings: Homo sapiens, 7 days, PrestoBlue cell viability
Protocol: as §1, §2

MEIS1 = assay: Test 3: inhibition of mRNA transcription, MEIS1 in MV4;11 cells; type: cell-based; settings: for mRNA at 1 μM (% control) MEIS1: MV4;11 cells, 20 to 24 hours, relative to GAPDH; for mRNA transcription inhibition activity: statement in words, MEIS1 and HOXA9, MV4;11 cells
Description: (§3) MV4; 11 cells were obtained from American Type Culture Collection (ATCC). […] The expression level of each obtained gene (MEIS1 and HOXA9) was fitted with the expression level of mRNA of GAPDH.

HOXA9 = assay: Test 3: inhibition of mRNA transcription, HOXA9 in MV4;11 cells; type: cell-based; settings: 20 to 24 hours, relative to GAPDH
Description: as §3

[2] = biological target: hERG (human Ether-a-go-go Related Gene) (Homo sapiens (Human), UniProt Q12809); assay: Test 4: hERG inhibition (QPatch HT, CHO cells stably expressing hERG); settings: for hERG/RS4; 11: hERG IC50 divided by RS4;11 proliferation IC50
Sequence of hERG (human Ether-a-go-go Related Gene) (Q12809 whole entry): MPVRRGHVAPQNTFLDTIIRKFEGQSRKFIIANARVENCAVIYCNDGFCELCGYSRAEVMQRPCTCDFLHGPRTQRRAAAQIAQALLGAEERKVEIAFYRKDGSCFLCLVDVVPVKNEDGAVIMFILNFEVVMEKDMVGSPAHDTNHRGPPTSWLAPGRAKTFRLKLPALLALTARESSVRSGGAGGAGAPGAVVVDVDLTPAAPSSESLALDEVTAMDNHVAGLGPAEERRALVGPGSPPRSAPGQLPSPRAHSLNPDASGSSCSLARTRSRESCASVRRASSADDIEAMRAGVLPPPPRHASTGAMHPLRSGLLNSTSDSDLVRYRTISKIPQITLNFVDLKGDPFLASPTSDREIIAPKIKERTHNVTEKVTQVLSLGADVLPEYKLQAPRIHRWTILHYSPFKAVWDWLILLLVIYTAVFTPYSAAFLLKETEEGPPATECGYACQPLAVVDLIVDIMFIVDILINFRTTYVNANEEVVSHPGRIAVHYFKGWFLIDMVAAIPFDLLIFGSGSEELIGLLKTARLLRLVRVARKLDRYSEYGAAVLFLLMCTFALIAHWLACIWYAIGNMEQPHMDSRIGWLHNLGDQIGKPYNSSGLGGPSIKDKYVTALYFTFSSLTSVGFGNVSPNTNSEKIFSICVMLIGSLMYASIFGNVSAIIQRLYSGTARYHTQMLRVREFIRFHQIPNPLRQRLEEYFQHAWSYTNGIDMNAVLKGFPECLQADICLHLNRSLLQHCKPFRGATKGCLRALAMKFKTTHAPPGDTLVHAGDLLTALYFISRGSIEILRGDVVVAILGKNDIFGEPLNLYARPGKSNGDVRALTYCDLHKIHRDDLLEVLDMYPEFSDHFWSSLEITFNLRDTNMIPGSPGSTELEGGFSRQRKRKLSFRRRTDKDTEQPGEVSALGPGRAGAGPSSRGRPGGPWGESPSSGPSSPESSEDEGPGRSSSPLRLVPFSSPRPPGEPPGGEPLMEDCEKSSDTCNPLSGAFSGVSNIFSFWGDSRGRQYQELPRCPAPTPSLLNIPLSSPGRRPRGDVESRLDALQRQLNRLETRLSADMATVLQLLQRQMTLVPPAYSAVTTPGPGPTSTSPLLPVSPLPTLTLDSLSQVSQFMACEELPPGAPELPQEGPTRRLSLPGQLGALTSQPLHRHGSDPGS

Row | Structure (SMILES) | IC50 [1] [nM] | Menin-MLL binding inhibition activity [1] | IC50 (RS4; 11 cells) [nM] | cell proliferation inhibition activity (RS4; 11 cells) | IC50 (MOLM-13 cells) [nM] | mRNA at 1 μM (% control) MEIS1 (MEIS1) [% control] | mRNA transcription inhibition activity (MEIS1) | mRNA at 1 μM (% control) HOXA9 (HOXA9) [% control] | IC50 [2] [nM] | gap between RS4; 11 proliferation IC50 and hERG current IC50 [2] | hERG/RS4; 11 [2]
1 | CC(C)N(C(=O)c1cc(F)ccc1Oc1cncnc1N1CC2(CN(C(=O)[C@H]3N[C@H]4CC[C@@H]3[C@@H](F)C4)C2)C1)C(C)C [Example 10, 5-fluoro-2-[(4-{6-[(1S,3S,4S,5S)-5-fluoro-2-azabicyclo[2.2.2]octane-3-carbonyl]-2,6-diazaspiro[3.3]heptan-2-yl}pyrimidin-5-yl)oxy]-N,N-di(propan-2-yl)benzamide] | < 3 | particularly potent | 20 | potent | 30 | 13.3 | showed the mRNA transcription inhibition activity | 37.4 | > 10000 | more than 100 fold | >500
2 | CC(C)N(C(=O)c1cc(F)ccc1Oc1cncnc1N1CC2(CCN(C(=O)[C@H]3N[C@H]4CC[C@@H]3C[C@H]4CC3CC3)CC2)C1)C(C)C [Example 4, 2-[(4-{7-[(1S,3S,4R,6R)-6-(cyclopropylmethyl)-2-azabicyclo[2.2.2]octane-3-carbonyl]-2,7-diazaspiro[3.5]nonan-2-yl}pyrimidin-5-yl)oxy]-5-fluoro-N,N-di(propan-2-yl)benzamide] | 7.1 | potent | 40 | potent | 70 | 18.0 | showed the mRNA transcription inhibition activity | 43.7 | 5800 | more than 100 fold | 145
3 | CC(C)N(C(=O)c1cc(F)ccc1Oc1cncnc1N1CC2(CN(C(=O)[C@H]3N[C@H]4CC[C@@H]3C[C@H]4CC3CC3)C2)C1)C(C)C [Example 5, 2-[(4-{6-[(1S,3S,4R,6R)-6-(cyclopropylmethyl)-2-azabicyclo[2.2.2]octane-3-carbonyl]-2,6-diazaspiro[3.3]heptan-2-yl}pyrimidin-5-yl)oxy]-5-fluoro-N,N-di(propan-2-yl)benzamide] | 4.1 | potent | 20 | potent; also recorded: excellent | 30 | 15.5 | showed the mRNA transcription inhibition activity | 42.6 | 7900 | more than 100 fold | 395
4 | CC(C)N(C(=O)c1cc(F)ccc1Oc1cncnc1N1CC2(CN(C(=O)[C@H]3N[C@H]4CC[C@@H]3C[C@@H]4CC3CC3)C2)C1)C(C)C [Example 3, 2-[(4-{6-[(1S,3S,4R,6S)-6-(cyclopropylmethyl)-2-azabicyclo[2.2.2]octane-3-carbonyl]-2,6-diazaspiro[3.3]heptan-2-yl}pyrimidin-5-yl)oxy]-5-fluoro-N,N-di(propan-2-yl)benzamide] | < 3 | particularly potent | 30 | potent | 10 | 11.9 | showed the mRNA transcription inhibition activity | 39.6 | 6200 | more than 100 fold | 620
